The values that follow come from patent US11634458B2, “Peptides and compositions for use in cosmetics and medicine” (LIPOTRUE, S.L., priority 2018, dated 2023).

One experiment relates to LAN cells. The experiment in a line: Measurement of acetylcholine release in differentiated LAN cells stimulated with 50 mM KCl. It counts as cell-based. The settings on record: 1 hour treatment, 0.001, 0.005 and 0.01 mg/mL (Ac-SEQ ID NO: 8-NH2: 0.005 and 0.05 mg/mL). How it is done: Said peptides were tested for their ability to modulate acetylcholine release in vitro. To that end, LAN cells were seeded on 48-well culture plates and allowed to reach the appropriate confluence under controlled conditions (37° C., 5% CO2) before inducing differentiation by replacing the culture media with Neurobasal® A media, supplemented with N-2 Supplement, GlutaMAX™, choline chloride and Leukemia Inhibition factor (GIBCO, Life technologies, MA, USA). Once the cells acquired its differentiated morphology, they were treated with the peptides mentioned above at the following concentrations for 1 hour: all peptides, except Ac-SEQ ID NO: 8-NH2, at 0.001 mg/mL, 0.005 mg/mL and 0.01 mg/mL; and peptide Ac-SEQ ID NO: 8-NH2 at 0.005 mg/mL and 0.05 mg/mL. Cells were then washed with HEPES, before stimulation of acetylcholine release by depolarization with external 50 mM KCl solution. Non-stimulated cells were incubated with non-depolarizing 4 mM KCl solution. After 30 minutes of incubation with the corresponding depolarizing or non-depolarizing KCl solution, cell supernatants were collected and used to measure acetylcholine levels with Amplex Red Acetylcholine Assay Kit (ThermoFisher Scientific, MA, USA). Cell pellets were used to determine protein content by BCA Protein Test Assay (Pierce BCA Protein Assay kit, ThermoFisher Scientific, MA, USA) (for data normalization purposes).
Percentage of acetylcholine release inhibition was calculated considering 100% release for the positive control (non-treated stimulated with KCl cells).

The subject of experiment [1] is human skeletal muscle myocytes. The experiment in a line: Gene expression modulation in skeletal muscle human myocytes (RTqPCR contractility gene panel). The class given is cell-based. The settings on record: 24 hours, vs basal control. The procedure:
Said peptides were tested to evaluate their capacity to modulate the expression of several genes related with muscle contraction and relaxation in human skeletal muscle myocytes (Lodish H, Berk A, Zipursky S L, et al. (2000), Molecular Cell Biology, 4th edition; Section 18.3 Myosin: The Actin Motor Protein, Nueva York, W. H. Freeman; Kuo, I Y, & Ehrlich, B E (2015), Signaling in Muscle Contraction, Cold Spring Harbor Perspectives in Biology, 7(2); RAPSN receptor associated protein of the synapse [Homo sapiens (human)], Gene ID in NCBI 5913; Blake D J, Tinsley J M, Davies K E (1996), Utrophin: a structural and functional comparison to dystrophin, Brain Pathol., 6(1):37-47; Barik A, Lu Y, Sathyamurthy A, et.al. (2014), LRP4Is Critical for Neuromuscular Junction Maintenance, The Journal of Neuroscience, 34(42), 13892-13905; Kim N, Stiegler A L, Cameron T O, Hallock P T, et.al. (2008), Lrp4 is a Receptor for Agrin and Forms a Complex with MuSK, Cell, 135(2), 334-342; Mahavadi S, Nalli A, Kumar D, et.al. (2014), Increased expression of caveolin-1 is associated with upregulation of the RhoA/Rho kinase pathway and smooth muscle contraction in diabetes (1110.11), The FASEB Journal, 28:1_supplement)). To that end, a contractility smart data gene panel was designed. Said contractility smart data gene panel analyses the expression of the genes related with muscular contraction and relaxation included in table 5.
Briefly, human skeletal muscle myoblasts were seeded in duplicate in 12-well culture plates at a density of 1×10^5 cells/well and maintained at standard culture conditions (37° C., 95% humidity, 5% CO2) for 48-72h. Myoblast differentiation to myocyte was then induced with specific differentiation media (SKM-D medium+1% Antibiotic-Antimycotic) and monitored for 7 more days. Differentiated cells were treated with 0.05 mg/mL of peptide Ac-SEQ ID NO: 5-NH2; or with 0.1 mg/mL of peptide Ac-SEQ ID NO: 10-NH2 for 24 hours; or with 0.05 and 0.5 mg/mL of peptide Ac-SEQ ID NO: 8-NH2 for 6h; or with 0.5 mg/mL of peptide Ac-SEQ ID NO: 8-NH2 for 24 h. Untreated cells were used as basal control. Cells were then lysed for RNA extraction with a RNA purification commercial kit following manufacturer instructions (RNeasy mini kit, Qiagen, Netherlands). RNA was then quantified by nanodrop, adjusted in concentration and processed for retrotranscription to cDNA using a commercially available kit (High-Capacity cDNA Reverse Transcription kit, Thermofisher Scientific, USA). Resulting cDNA was used to perform a RTqPCR (Real Time Quantitative Polymerase Chain Reaction) using taqman technology and a panel of probes designed to target the specific genes related to muscle contractility mentioned in table 4.
(In general: In qPCR the cycle at which signal appears reflects the starting amount.)

The next experiment has as its target Munc18/Syntaxin-1 (Homo sapiens, UniProt Q16623). The experiment in a line: ELISA-based in vitro Munc18/Syntaxin-1 binding assay. The settings on record: peptide 0.1, 0.5 and 1 mM; Munc18 100 nM, Syntaxin-1 10 and 5 nM; control = 100% binding. How it is done: The capacity of the peptides to inhibit Munc18 protein-protein interaction with Syntaxin-1, a SNARE complex protein, was functionally evaluated by means of an ELISA-based in vitro Munc18/Syntaxin-1 binding assay. Briefly, the above-mentioned peptides at 0.1, 0.5 and 1 mM were preincubated with their target protein Syntaxin-1 (GST-tagged) at 10 and 5 nM in buffer (20 mM Hepes, 150 mM NaCl, 2 mM MgC2, 2 mM DTT, 0.5% Triton-X100 and 0.5% non-fat milk) for 3 hours at RT. Meanwhile, His-tagged Munc18 was bound to a Nickel-coated 96-well plate at 100 nM and incubated at RT for 1.5 hours. Non-bound protein was subsequently washed away before blocking wells with non-fat milk in wash buffer (PBS+0.02% Triton-X100) for additional 30 minutes. GST-tagged Syntaxin-1 preincubated with the peptides was then added at 10 and 5 nM to the plate and incubated for 2 h at RT. Wells were washed three times with wash buffer before incubation with the primary antibody (GST tag polyclonal antibody—Thermofisher Scientific, Massachusetts, USA) for 45 minutes. Finally, after washing again, HRP-conjugated secondary antibody (Anti-Rabbit-IgG-HRP—Sigma, Missouri, USA) was added and incubated at RT. TMB substrate (3,3′,5,5′-Tetramethylbenzidine) was used to develop signal. […] Amount of binding of Syntaxin-1 protein to Munc18 protein was analysed by measuring absorbance at 450 nm.
In general terms: An ELISA detects its analyte on a solid surface through an enzyme-linked reagent.

Entries after “also recorded” stand apart in the source; their conditions may differ.

Sequence of Munc18/Syntaxin-1 (Q16623 whole entry): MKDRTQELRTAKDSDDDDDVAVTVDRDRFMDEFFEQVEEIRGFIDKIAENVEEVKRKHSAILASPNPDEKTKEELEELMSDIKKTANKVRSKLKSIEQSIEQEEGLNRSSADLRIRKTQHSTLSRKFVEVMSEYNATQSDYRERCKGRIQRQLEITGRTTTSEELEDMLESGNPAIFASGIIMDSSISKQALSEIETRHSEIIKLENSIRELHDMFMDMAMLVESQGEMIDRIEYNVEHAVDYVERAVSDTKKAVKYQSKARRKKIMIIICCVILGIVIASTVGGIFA

Consider “Ac-His-Ile-Met-Asp-Phe-Trp-NH2 (Ac-HIMDFW-NH2) [Ac-SEQ ID NO: 6-NH2]”, for which the “Result: modulation of acetylcholine release” value (from here on “Result: modulation”) with LAN cells is listed as “Active in the modulation of”.
The same measure, in the same setting: under “Ac-His-Ile-Met-Asp-Trp-Trp-NH2 (Ac-HIMDWW-NH2) [Ac-SEQ ID NO: 9-NH2]” stands “Active in the modulation of”.
For “Ac-His-Ile-Leu-Asp-Met-Trp-NH2 (Ac-HILDMW-NH2) [Ac-SEQ ID NO: 5-NH2]”, in the experiment with LAN cells, the “Result: modulation” value is recorded as “Active in the modulation of”. In addition, in experiment [1] (0.05 mg/mL), the ACTA1 gene expression entry is listed as “downregulation”, the MYH1 gene expression result was “downregulation”, the RAPSN gene expression entry is reported as “downregulation” and the SCN3A gene expression entry was “downregulation”. In experiment [1] (0.05 mg/mL), the TNNC1 gene expression result is “downregulation” and the UTRN gene expression result is given as “downregulation”. The “Maximum inhibition of Munc18-Syntaxin-1 binding” value with Munc18/Syntaxin-1 came out at 67%.
In the case of “Ac-Arg-Met-Arg-Phe-NH2 (Ac-RMRF-NH2) [Ac-SEQ ID NO: 11-NH2]”, the “Result: modulation” value in the experiment on LAN cells is listed as “Active in the modulation of”.
Consider “Ac-His-Ile-Leu-Asp-Trp-Trp-NH2 (Ac-HILDWW-NH2) [Ac-SEQ ID NO: 7-NH2]”, for which the “Result: modulation” value in the experiment on LAN cells is “Active in the modulation of”.
As for “Ac-Glu-Arg-Ile-Asn-Lys-Met-Arg-Tyr-NH2 (Ac-ERINKMRY-NH2) [Ac-SEQ ID NO: 14-NH2]”, in the experiment with LAN cells, the “Result: modulation” value is listed as “not able to inhibit the release of acetylcholine; also recorded: Non-active in the modulation”.
For “Ac-Arg-Arg-Arg-Phe-NH2 (Ac-RRRF-NH2) [Ac-SEQ ID NO: 10-NH2]”, the “Result: modulation” value in the experiment on LAN cells was “Active in the modulation of”. In experiment [1] (0.1 mg/mL), the CACNB1 gene expression result was “downregulation”, the CHRNA1 gene expression entry is “downregulation”, the SCN3A gene expression entry was “downregulation” and the TNNC1 gene expression result is listed as “downregulation”. For the same substance, the UTRN gene expression result in experiment [1] (0.1 mg/mL) is recorded as “downregulation”.
With “Ac-Glu-Arg-Ile-Asn-Lys-Arg-Arg-Trp-NH2 (Ac-ERINKRRW-NH2) [Ac-SEQ ID NO: 13-NH2]”, in the experiment on LAN cells, the “Result: modulation” value was “not able to inhibit the release of acetylcholine; also recorded: Non-active in the modulation”.
